Publication PMC11091889, “Silver Organometallics that are Highly Potent Thioredoxin and Glutathione Reductase Inhibitors: Exploring the Correlations of Solution Chemistry with the Strong Antibacterial Effects” (ACS Infectious Diseases, 2024)
Where two headings read alike, the source gives them in different places.

What was measured:
[1] = tested on: P. aeruginosa PA7 (DSM 24068); experiment: microbe, parasite or virus in culture; format: cell-based, Pseudomonas aeruginosa; settings: for MIC: DSM24068, 22 h; for MIC P. aeruginosa: 22 h
Description: (§1) The antibacterial effect of the silver NHC complexes and selected ligands was evaluated in two Gram-positive [Enterococcus faecium, methicillin resistant S. aureus, (MRSA)] and in four Gram-negative (Acinetobacter baumannii, Escherichia coli, Klebsiella pneumoniae, and Pseudomonas aeruginosa) pathogenic bacterial strains using broth microdilution assays. The resulting minimal inhibitory concentrations (MICs, Table 2) and EC50 (Table S6) were determined by a curve fitting procedure. Silver nitrate (AgNO3), SSD, and various antibiotics were used as references.
(§2) The following strains of ESKAPE panel were utilized and maintained at 37 °C in MHB (21 g/L Müller Hinton broth, pH 7.4) or TSY (30 g/L trypticase soy broth, 3 g/L yeast extract, pH 7.0–7.2) media: A. baumannii (DSM 30007, ATCC 19606), E. coli (DSM1116, ATCC 9637), K. pneumoniae (DSM 11678, ATCC33495), P. aeruginosa PA7 (DSM 24068) in MHB; E. faecium (DSM 20477, ATCC 19434), and S. aureus MRSA (DSM 11822, ICB 25701) in TSY. MIC values were determined following a standardized protocol in broth microdilution assays. The compounds and reference substances (AgNO3 and SSD) were serially diluted from 64 to 1 μg/mL. Starting inocula of 2–8 × 10^5 CFU/mL in MHB or TSY media at 37 °C were used, and serial dilutions were carried out in 96-well microtiter plates in duplicate. After incubation of the plates for 22 h at 37 °C, the absorbance at 600 nm was measured using The Spark multimode microplate reader (Tecan Trading AG). The MIC values for the tested compounds were determined in three independent experiments and presented in μM with standard errors and also in μg/mL. Amikacin (P. aeruginosa), linezolid (S. aureus), and ciprofloxacin (all other strains) served as positive controls. The MIC and EC50 values were determined by curve fitting with Sigma Plot. To determine the effect of the culture medium on the activity of silver compounds, the assay was performed using MHB, TSY, or DMEM (Gibco). To observe the effect of individual components of TSY medium, antibacterial tests were performed using MHB with addition of tryptone (17 g/L) or yeast extract (3 g/L, both were purchased from Sigma).

[2] = tested on: K. pneumoniae (DSM 11678, ATCC33495); experiment: Broth microdilution antibacterial assay; format: cell-based, Klebsiella pneumoniae; settings: for MIC / MIC K. pneumoniae: 22 h; for EC50: read-out: EC50 K. pneumoniae
Description: as §1, §2

[3] = tested on: A. baumannii (DSM 30007, ATCC 19606); experiment: Broth microdilution antibacterial assay; format: cell-based, Acinetobacter baumannii; settings: for MIC / MIC A. baumannii: 22 h; for EC50: read-out: EC50 A. baumannii
Description: as §1, §2

[4] = tested on: E. coli (DSM1116, ATCC 9637); experiment: microbe, parasite or virus in culture; format: cell-based, Escherichia coli; settings: n = 3, MHB; for MIC: 22 h
Description: as §1, §2

[5] = tested on: S. aureus MRSA (DSM 11822, ICB 25701); experiment: microbe, parasite or virus in culture; format: cell-based, methicillin resistant S. aureus; settings: for MIC / MIC MRSA: 22 h; for EC50: read-out: EC50 MRSA
Description: as §1
The importance of the culture medium used in antibacterial assays has been pointed out for antibiotics and in particular for silver.[53]−[55] In our recent studies, tryptic soy yeast (TSY) broth has been used for growing Gram-positive bacteria. Two components thereof, tryptone and yeast extract, have been reported to affect the antibacterial activity of silver nitrate.[55] Moreover, such an effect was also observed for other media containing at least one of those components.[11],[53] […] Silver nitrate served as a reference, and three different growth media were studied, namely, Müller-Hinton Broth (MHB, commonly used for Gram-negative bacteria), TSY broth (commonly used for Gram-positive bacteria), and DMEM supplemented with 10% FCS (commonly used for growth of mammalian and human cells).
as §2

[6] = tested on: E. faecium (DSM 20477, ATCC 19434); experiment: Broth microdilution antibacterial assay; format: cell-based, Enterococcus faecium
Description: as §1, §2

[7] = Klebsiella pneumoniae, read-out: MIC K. pneumoniae (value in brackets)
[8] = mean ± standard error, n = 3, MHB
[9] = Acinetobacter baumannii, read-out: MIC A. baumannii (value in brackets)
[10] = Escherichia coli, read-out: MIC E. coli (value in brackets)
[11] = mean ± standard error, read-out: MIC E. coli
[12] = Staphylococcus aureus, read-out: MIC MRSA (value in brackets)
[13] = mean ± standard error, n = 3, TSY
[14] = Enterococcus faecium, 22 h, read-out: MIC E. faecium (value in brackets)
[15] = read-out: EC50 E. faecium, mean ± standard error, n = 3, TSY
[16] = Pseudomonas aeruginosa, read-out: MIC P. aeruginosa (value in brackets), n = 3, MHB, 22 h
[17] = read-out: EC50 P. aeruginosa, mean ± standard error, n = 3, MHB

NCC[C@H](O)C(=O)N[C@@H]1C[C@H](N)[C@@H](O[C@H]2O[C@H](CN)[C@@H](O)[C@H](O)[C@H]2O)[C@H](O)[C@H]1O[C@H]1O[C@H](CO)[C@@H](O)[C@H](N)[C@H]1O [amikacin, reference compound]
2.6 µg/mL: MIC ([1]; Pseudomonas aeruginosa, read-out: MIC P. aeruginosa (value in brackets))
4.4 ± 1.3 µM: MIC ([1]; Pseudomonas aeruginosa, read-out: MIC P. aeruginosa)

CC(C)[n+]1cn(Cc2ccccn2)c2ccccc21.[I-] [L3c, 1-Isopropyl-3-(pyridin-2-ylmethyl)-benzimidazolium Iodide]
> 128 µg/mL: MIC [2, 7] | MIC [3, 9] | MIC [4, 10] | MIC [5, 12] | MIC [6, 14] | MIC [1, 16]
> 250 µM: MIC K. pneumoniae [2, 8] | EC50 [2, 8] | MIC A. baumannii [3, 8] | EC50 [3, 8] | EC50 ([4]; mean ± standard error) | MIC [4, 11] | MIC MRSA [5, 13] | EC50 [5, 13] | MIC E. faecium ([6]; mean ± standard error, n = 3, TSY, 22 h) | EC50 [6, 15]
≥ 250 µM: MIC P. aeruginosa [1, 8] | EC50 [1, 17]

CC(C)[n+]1cn(Cc2ccccn2)c2ccccc21.[Cl-] [L3a, 1-Isopropyl-3-(pyridin-2-ylmethyl)-benzimidazolium Chloride]
> 128 µg/mL: MIC [2, 7] | MIC [3, 9] | MIC [4, 10] | MIC [5, 12] | MIC [6, 14] | MIC [1, 16]
> 250 µM: MIC ([2]; Klebsiella pneumoniae, read-out: MIC K. pneumoniae) | EC50 ([2]; Klebsiella pneumoniae) | MIC ([3]; Acinetobacter baumannii, read-out: MIC A. baumannii) | EC50 ([3]; Acinetobacter baumannii) | EC50 ([4]; Escherichia coli, mean ± standard error) | MIC ([4]; Escherichia coli, mean ± standard error, read-out: MIC E. coli) | MIC ([5]; Staphylococcus aureus, read-out: MIC MRSA) | EC50 ([5]; Staphylococcus aureus) | MIC ([6]; Enterococcus faecium, 22 h, read-out: MIC E. faecium) | EC50 ([6]; Enterococcus faecium, read-out: EC50 E. faecium, mean ± standard error, n = 3, TSY) | MIC ([1]; Pseudomonas aeruginosa, read-out: MIC P. aeruginosa, mean ± standard error, n = 3, MHB, 22 h) | EC50 ([1]; Pseudomonas aeruginosa, DSM24068, read-out: EC50 P. aeruginosa, mean ± standard error, n = 3, MHB)

CC(C)[n+]1cn(Cc2ccccn2)c2ccccc21.[Br-] [L3b, 1-Isopropyl-3-(pyridin-2-ylmethyl)-benzimidazolium Bromide]
≥ 128 µg/mL: MIC [3, 9]
> 250 µM: MIC K. pneumoniae [2, 8] | EC50 [2, 8] | MIC A. baumannii [3, 8] | EC50 [3, 8] | EC50 ([4]; mean ± standard error) | MIC [4, 11] | MIC MRSA [5, 13] | EC50 [5, 13] | MIC P. aeruginosa [1, 8] | EC50 [1, 17]
≥ 250 µM: MIC ([6]; Enterococcus faecium, 22 h, read-out: MIC E. faecium, mean ± standard error, n = 3, TSY, 22 h) | EC50 [6, 15]
> 128 µg/mL: MIC [2, 7] | MIC [4, 10] | MIC [5, 12] | MIC [1, 16]
